Results on 1 compound are retold here after paper PMC4418665, “Cyclization of the Urokinase Receptor-Derived Ser-Arg-Ser-Arg-Tyr Peptide Generates a Potent Inhibitor of Trans-Endothelial Migration of Monocytes” (PLoS ONE, 2015).

The subject of the experiment is RBL-2H3/ETFR cells. Nature of the experiment: RBL-2H3/ETFR cell migration, xCELLigence RTCA. Format: cell-based, rat. The settings on record: 4 hours, Cell Index, quadruplicate. Here is the method:
We have previously documented that SRSRY competes with the bacterial-derived N-formyl-methionyl-leucyl-phenylalanine peptide (fMLF) for binding to FPR type 1 (FPR1) and that both SRSRY and fMLF promote cell migration by triggering FPR1 internalization. […] Quantification of cell-associated fluorescence was assessed by reading cell lysates with a fluorescence plate reader. RBL-2H3 cells lack FPR1, thus they display very low uptake that was not saturable with unlabeled fMLF (Fig 2A). […] To evaluate the effect of [SRSRY] on agonist-dependent FPR1 internalization, binding experiments were performed at 37°C. […] Thus, we assessed whether [SRSRY] elicits effects on fMLF-directed cell migration. RBL-2H3/ETFR cell migration toward 10 nM fMLF was monitored in real-time for 4 hours as Cell Index changes due to the adhesion of migrating cells to microelectrodes using the xCELLigence RTCA technology as previously described. […]
Fig 2 Both linear and cyclic SRSRY peptides bind to FPR1. […] Fluorimetric measurement of cell-associated fluorescence was assed using 485 nm excitation and 535 nm emission filters. Data are expressed as a percentage of the fluorescence associated to RBL-2H3 cells exposed to FITC-fMLF alone (CTL = 100%) and represent a mean ± SD from triplicates. *Statistical significance (t-test) against None with p<0.001. […] Cell migration of RBL-2H3/ETFR cells monitored by the xCELLigence system. […]

Peptide text beside a SMILES is read from it.

For `N=C(N)NCCC[C@@H]1NC(=O)[C@H](CO)NC(=O)[C@H](Cc2ccc(O)cc2)NC(=O)[C@H](CCCNC(=N)N)NC(=O)[C@H](CO)NC1=O` [[SRSRY], [Ser-Arg-Ser-Arg-Tyr]] (cyclo(RSRYS)), the “RBL-2H3/ETFR cell migration toward 10 nM fMLF in presence of peptide” value (10 nM fMLF mixed with 10 nM peptide) is given as “reduced to the basal level”. Also, the “RBL-2H3/ETFR cell migration toward the peptide alone” value (10 nM peptide in lower chamber) is reported as “cell migration did not change significantly”.
